# Results as given in US20240343704A1, “HALO-SUBSTITUTED AMINO PYRIDINE COMPOUNDS AS INHIBITORS OF THE HAEMATOPOIETIC PROGENITOR KINASE 1 (HPK1)” (priority 2021, published 2024).
# What was measured:
# [1] = molecular target: T1, Recombinant (1-346) HPK1 (h) (Homo sapiens, UniProt Q92918); assay: HPK1 Human STE Kinase Enzymatic Radiometric Assay; assay type: biochemical; conditions: read-out: HPK1 IC50 nM Range*
# T1 construct: Recombinant (1-346) HPK1 (h) is incubated with 8 mM MOPS pH 7.0
# T1 sequence (Q92918 1-346): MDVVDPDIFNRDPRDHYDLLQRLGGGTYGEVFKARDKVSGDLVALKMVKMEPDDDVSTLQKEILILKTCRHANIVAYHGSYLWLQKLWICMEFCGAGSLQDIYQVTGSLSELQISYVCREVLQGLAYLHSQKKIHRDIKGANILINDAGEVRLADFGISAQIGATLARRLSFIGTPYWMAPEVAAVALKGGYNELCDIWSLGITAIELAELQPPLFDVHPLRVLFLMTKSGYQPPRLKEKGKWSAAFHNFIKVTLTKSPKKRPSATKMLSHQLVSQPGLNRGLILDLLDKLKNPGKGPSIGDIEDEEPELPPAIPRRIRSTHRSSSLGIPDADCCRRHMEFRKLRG
# Description: A stock solution of 10 mM of test compound is prepared in DMSO. The compound plate was prepared by 3-fold and 9-point serial dilutions. […] The reaction is initiated by The addition of the Mg/ATP mix. After incubation for 40 minutes at RT, the reaction is stopped by the addition of phosphoric acid to a concentration of 0.5%.
# Lck (h) = Lck (h) (Homo sapiens, UniProt P06239); assay: Lck Human  Kinase Enzymatic Radiometric Assay; assay type: biochemical; conditions: read-out: Lck IC50 nM Range*
# Outline: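 Substrate 33P-incorporation measured by scintillation counting after spotting on P30 filtermat and phosphoric acid washes. Human Lck reacted 40 min at RT in 50 mM Tris pH 7.5 with 10 mM MgAcetate, [gamma-33P]-ATP, 250 uM Cdc2 peptide, 0.1 mM EGTA and 0.1 mM Na3VO4.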
# Lck (h), sequence (P06239 whole entry): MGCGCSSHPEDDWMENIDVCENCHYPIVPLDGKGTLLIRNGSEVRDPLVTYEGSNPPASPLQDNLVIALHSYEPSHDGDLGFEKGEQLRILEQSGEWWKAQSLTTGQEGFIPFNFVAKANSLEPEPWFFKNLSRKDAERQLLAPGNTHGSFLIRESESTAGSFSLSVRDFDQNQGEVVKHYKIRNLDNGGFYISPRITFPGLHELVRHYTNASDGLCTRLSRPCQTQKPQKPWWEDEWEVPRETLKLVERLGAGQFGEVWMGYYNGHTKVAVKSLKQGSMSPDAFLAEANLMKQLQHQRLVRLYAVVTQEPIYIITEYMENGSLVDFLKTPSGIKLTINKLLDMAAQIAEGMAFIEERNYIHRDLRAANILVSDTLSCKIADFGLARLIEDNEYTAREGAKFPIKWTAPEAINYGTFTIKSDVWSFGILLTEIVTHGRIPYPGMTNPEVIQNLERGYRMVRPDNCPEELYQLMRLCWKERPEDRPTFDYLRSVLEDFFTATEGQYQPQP
smiles,measurement,setting,value
"CN(C)Cc1cc(-c2cc(-c3ccc4c(c3)CCNC4=O)c(N)nc2F)ccc1N1CCN(C2CCCC2)CC1 [I-451, 6-(2-amino-5-(4-(4-cyclopentylpiperazin-1-yl)-3-((dimethylamino)methyl)phenyl)-6-fluoropyridin-3-yl)-3,4-dihydroisoquinolin-1(2H)-one]",IC50,[1],0.1 to 10 nM
same,IC50,Lck (h),> 1000 nM
"Cc1cc2cc(-c3cc(-c4ccc(N5CCN(CC6CC6)CC5)cc4)c(F)nc3N)cc(F)c2c(=O)[nH]1 [I-454, 6-(2-amino-5-(4-(4-(cyclopropylmethyl)piperazin-1-yl)phenyl)-6-fluoropyridin-3-yl)-8-fluoro-3-methylisoquinolin-1(2H)-one]",IC50,[1],0.1 to 10 nM
same,IC50,Lck (h),> 1000 nM
"Nc1nc(F)c(-c2ccc(N3CCN(CC4CC4)CC3)cc2)cc1-c1ccc2c(=O)[nH]cc(F)c2c1 [I-455, 6-(2-amino-5-(4-(4-(cyclopropylmethyl)piperazin-1-yl)phenyl)-6-fluoropyridin-3-yl)-4-fluoroisoquinolin-1(2H)-one]",IC50,[1],0.1 to 10 nM
same,IC50,Lck (h),> 1000 nM
"Cc1c[nH]c(=O)c2ccc(-c3cc(-c4ccc(N5CCN(CC6CC6)CC5)cc4)c(F)nc3N)cc12 [I-457, 6-(2-amino-5-(4-(4-(cyclopropylmethyl)piperazin-1-yl)phenyl)-6-fluoropyridin-3-yl)-4-methylisoquinolin-1(2H)-one]",IC50,[1],0.1 to 10 nM
same,IC50,Lck (h),> 1000 nM
"Cc1[nH]c(=O)c2c(F)cc(-c3cc(-c4ccc(N5CCN(C(C)C)CC5)cc4)c(F)nc3N)cc2c1F [I-481, 6-(2-amino-6-fluoro-5-(4-(4-isopropylpiperazin-1-yl)phenyl)pyridin-3-yl)-4,8-difluoro-3-methylisoquinolin-1(2H)-one]",IC50,[1],0.1 to 10 nM
same,IC50,Lck (h),> 1000 nM
"CN(C)Cc1cc(-c2cc(-c3ccc4c(=O)[nH]cc(F)c4c3)c(N)nc2F)ccc1C1CCOCC1 [I-503, 6-(2-amino-5-(3-((dimethylamino)methyl)-4-(tetrahydro-2H-pyran-4-yl)phenyl)-6-fluoropyridin-3-yl)-4-fluoroisoquinolin-1(2H)-one]",IC50,[1],0.1 to 10 nM
same,IC50,Lck (h),> 1000 nM
"COC1CCN(Cc2cc(-c3cc(-c4cc5c(cc4F)C(=O)NCC5)c(N)nc3F)ccc2N2CCOCC2)C1 (stereo not drawn) [I-543, 6-(2-amino-6-fluoro-5-(3-((3-methoxypyrrolidin-1-yl)methyl)-4-morpholinophenyl)pyridin-3-yl)-7-fluoro-3,4-dihydroisoquinolin-1(2H)-one]",IC50,[1],0.1 to 10 nM
same,IC50,Lck (h),11 to 100 nM
"Nc1nc(F)c(-c2ccc(N3CCN(CC4CC4)CC3)cc2)cc1-c1cc2c(F)c[nH]c(=O)c2cc1F [I-548, 6-(2-amino-5-(4-(4-(cyclopropylmethyl)piperazin-1-yl)phenyl)-6-fluoropyridin-3-yl)-4,7-difluoroisoquinolin-1(2H)-one]",IC50,[1],0.1 to 10 nM
same,IC50,Lck (h),> 1000 nM
"CN(C)Cc1nc(-c2cc(-c3ccc4c(c3)CCNC4=O)c(N)nc2F)ccc1N1CCOCC1 [I-551, 6-(6′-amino-6-((dimethylamino)methyl)-2′-fluoro-5-morpholino-[2,3′-bipyridin]-5′-yl)-3,4-dihydroisoquinolin-1(2H)-one]",IC50,[1],0.1 to 10 nM
same,IC50,Lck (h),> 1000 nM
"CCN(C)Cc1nc(-c2cc(-c3ccc4c(c3)CCNC4=O)c(N)nc2F)ccc1N1CCOCC1 [I-580, 6-(6′-amino-6-((ethyl(methyl)amino)methyl)-2′-fluoro-5-morpholino-[2,3′-bipyridin]-5′-yl)-3,4-dihydroisoquinolin-1(2H)-one]",IC50,[1],0.1 to 10 nM
same,IC50,Lck (h),> 1000 nM
"CC(=O)N1CCN(c2ccc(-c3cc(-c4ccc5c(c4)CCNC5=O)c(N)nc3F)nc2)CC1 [I-591, 6-(5-(4-acetylpiperazin-1-yl)-6′-amino-2′-fluoro-[2,3′-bipyridin]-5′-yl)-3,4-dihydroisoquinolin-1(2H)-one]",IC50,[1],0.1 to 10 nM
same,IC50,Lck (h),> 1000 nM
"Nc1nc(F)c(-c2ccc(N3CCOCC3)c(CN3CCC3)c2F)cc1-c1ccc2c(c1)CCNC2=O [I-609, 6-(2-amino-5-(3-(azetidin-1-ylmethyl)-2-fluoro-4-morpholinophenyl)-6-fluoropyridin-3-yl)-3,4-dihydroisoquinolin-1(2H)-one]",IC50,[1],11 to 100 nM
same,IC50,Lck (h),> 1000 nM
